The record followed here is article doi:10.1101/2023.08.31.555663, “Computational exploration of the global microbiome for antibiotic discovery” (bioRxiv, 2023).

Test [1] has as its system Acinetobacter baumannii ATCC 19606. The following applies: broth microdilution, LB broth, 24 h at 37 °C, two-fold dilutions 64 to 1 μmol·L^−1, absorbance 600 nm, mode of three independent replicates.
Protocol: Amino acid composition, structure, antimicrobial activity, and mechanism of action of c_AMPs. […] (AC) Activity of c_AMPs assessed against ESKAPEE pathogens and human gut commensal strains. Briefly, 10^6 CFU·mL^−1 was exposed to c_AMPs two-fold serially diluted ranging from 64 to 1 μmol·L^−1 in 96-wells plates and incubated at 37 °C for one day. After the exposure period, the absorbance of each well was measured at 600 nm. Untreated solutions were used as controls and minimal concentration values for complete inhibition were presented as a heat map of antimicrobial activities (μmol·L^−1) against 11 pathogenic and eight human gut commensal bacterial strains.
The next test deals with A. baumannii ATCC 19606. Description: Skin abscess infection mouse model. The following applies: CD-1 mice, n=3. Format: in vivo. On the procedure: Figure 7. Anti-infective activity of AMPs in pre-clinical animal model. (A) Schematic of the skin abscess mouse model used to assess the anti-infective activity of the peptides against A. baumannii cells. (B) Peptides were tested at their MIC in a single dose one hour after the establishment of the infection. Each group consisted of three mice n=3 and the bacterial loads used to infect each mouse derived from a different inoculum. (C) To rule out toxic effects of the peptides, mouse weight was monitored throughout the experiment. Statistical significance in (B) was determined using one-way ANOVA where all groups were compared to the untreated control group; P-values are shown for each of the groups. Features on the violin plots represent median and upper and lower quartiles. Data in (C) are the mean ± the standard deviation. Figure created in BioRender.com. […]
To assess the anti-infective efficacy of the peptides against A. baumannii ATCC 19606 in a skin abscess infection mouse model, the bacteria were cultured in tryptic soy broth (TSB) medium until an OD600 of 0.5 was reached. […] The animals were euthanized two- and four-days post-infection, and the infected area was extracted and homogenized for 20 min using a bead beater (25 Hz) and 10-fold serially diluted for CFU quantification on MacConkey agar plates for easy differentiation of A. baumannii colonies. […]

Where a SMILES comes first, the peptide text is derived from it. Bridges are numbered along the chain shown (N, C = ends). [ ]: non-standard residue; d: D form. The star is where a group is joined. X1 = CC[C@H](C)CCCCC(=O)*; Dab = NCC[C@H](N)C(=O)O

Consider `CC[C@H](C)CCCCC(=O)N[C@@H](CCN)C(=O)N[C@H](C(=O)N[C@@H](CCN)C(=O)N[C@H]1CCNC(=O)[C@H]([C@@H](C)O)NC(=O)[C@H](CCN)NC(=O)[C@H](CCN)NC(=O)[C@H](CC(C)C)NC(=O)[C@@H](Cc2ccccc2)NC(=O)[C@H](CCN)NC1=O)[C@@H](C)O` [polymyxin B] (X1-[Dab]T[Dab][Dab][Dab][dF]L[Dab][Dab]T; lactam 4-C (inferred); N-terminus assumed), for which, in test [1], the “Minimal Inhibitory Concentration, A. baumannii ATCC 19606” value stood at 0.25 µmol/L. The “Kind of anti-infective activity against A. baumannii in skin abscess” value with A. baumannii ATCC 19606 (single dose at MIC on the infected area, two days post-infection) is recorded as “bactericidal activity”. The “Reduction of CFU counts compared to the untreated control” value in the test with A. baumannii ATCC 19606 (skin abscess, A. baumannii, single dose at MIC, four days post-infection) was 1–2 orders of magnitude.
